According to article PMC10654507, “A cleavable chimeric peptide with targeting and killing domains enhances LPS neutralization and antibacterial properties against multi-drug resistant E. coli” (Communications Biology, 2023):
Values after ≈ are worked out from the molar mass of the structure shown. Read-outs that look alike come from different tables or passages of the source. Residues, ends and D or L forms follow the SMILES beside them. No end group written: not given here.

Tests used:
[1] = test system: Staphylococcus aureus ATCC43300; type: cell-based; conditions: ATCC43300, 18 h
Protocol: (§1) The minimum inhibitory concentration (MIC) and minimum bactericidal concentration (MBC) of peptides were determined by the microtiter broth dilution method according to Clinical and Laboratory Standards Institute (CLSI) guidelines. […] PBS was used as the negative control. […] The MBC value was calculated as the lowest concentration of peptides resulting in a 99.9% reduction of the original inoculum. All experiments were repeated three times.

Escherichia coli CVCC195 = type: cell-based
Protocol: as §1

S. typhimurium CVCC533 = type: cell-based, Salmonella typhimurium
Protocol: as §1

S. aureus CVCC546 = type: cell-based, Staphylococcus aureus
Protocol: as §1

[2] = test system: E. coli, S. typhimurium and S. aureus; type: cell-based; conditions: 18 h
Protocol: as §1

E. coli 0111: B4 LPS = assay: BC (BODIPY-TR-cadaverine) displacement assay, binding to LPS; parameters: species or system Escherichia coli; unit not given here; conditions: Fig. 4a source data, mean
Protocol: The binding of peptides to LPS was determined according to the method described previously[34],[59]. In brief, E. coli 0111: B4 LPS (40 μg/mL) and BODIPY-TR-cadaverine (BC) (10 μM) were mixed in 50 mM Tris buffer (pH = 7.4) in equal proportions and added to a 96-well black plate (180 μL/well) in the dark. Different concentrations of chimeric peptide R7 and its parental (20 μL) were added into each well and detected by a fluorescence spectrophotometry at room temperature (excitation wavelength 580 nm, emission wavelength 620 nm). The change in relative fluorescence was recorded and the BC displacement rate was calculated. Polymycin B (PMB) was used as the positive control.

[3] = lowest concentration giving 99.9% reduction of the inoculum, repeated three times
[4] = microtiter broth dilution, 10^5 CFU/mL, 37 °C, 16 ~ 18 h, repeated three times

| Molecule | MIC [1] [µM] | MBC (Escherichia coli CVCC195; CVCC195, 18 h) [µM] | MIC (Escherichia coli CVCC195; CVCC195, 18 h) [µM] | MIC (S. typhimurium CVCC533; CVCC533, 18 h) [µM] | MBC (S. aureus CVCC546; CVCC546, 18 h) [µM] | MIC (S. aureus CVCC546; CVCC546, 18 h) [µM] | MBC [1] [µM] | other results |
| --- | --- | --- | --- | --- | --- | --- | --- | --- |
| CC(C)[C@H](NC(=O)[C@H](CCCCN)NC(=O)[C@H](Cc1c[nH]c2ccccc12)NC(=O)[C@H](CCCNC(=N)N)NC(=O)CNC(=O)[C@H](CCC(N)=O)NC(=O)[C@@H](NC(=O)[C@@H](N)CCCNC(=N)N)C(C)C)C(=O)N[C@@H](CCCNC(=N)N)C(=O)N[C@@H](C)C(=O)N[C@@H](CO)C(=O)N[C@@H](Cc1ccccc1)C(=O)N[C@@H](Cc1ccccc1)C(=O)N[C@@H](CCCCN)C(=O)N[C@@H](CCCNC(=N)N)C(=O)N[C@@H](CCCCN)C(=O)N[C@@H](CCCNC(=N)N)C(=O)N[C@@H](CCCNC(=N)N)C(=O)O [LBP14-RKRR] (H-RVQGRWKVRASFFKRKRR-OH) | 4.53 (≈ 10.7 µg/mL) | 2.26 (≈ 5.34 µg/mL) | 2.26 (≈ 5.34 µg/mL) | 4.53 (≈ 10.7 µg/mL) | 9.06 (≈ 21.4 µg/mL) | 9.06 (≈ 21.4 µg/mL) | – | – |
| CSCC[C@H](NC(=O)[C@H](CCCNC(=N)N)NC(=O)[C@H](Cc1c[nH]c2ccccc12)NC(=O)[C@H](C)NC(=O)[C@H](Cc1c[nH]c2ccccc12)NC(=O)[C@H](CCCNC(=N)N)NC(=O)[C@H](Cc1c[nH]c2ccccc12)NC(=O)[C@H](C)NC(=O)[C@H](CCCCN)NC(=O)[C@H](Cc1ccccc1)NC(=O)[C@H](CO)NC(=O)CNC(=O)CNC(=O)CNC(=O)CNC(=O)[C@H](CCCCN)NC(=O)[C@H](Cc1ccccc1)NC(=O)[C@H](Cc1ccccc1)NC(=O)[C@H](CO)NC(=O)[C@H](C)NC(=O)[C@H](CCCNC(=N)N)NC(=O)[C@@H](NC(=O)[C@H](CCCCN)NC(=O)[C@H](Cc1c[nH]c2ccccc12)NC(=O)[C@H](CCCNC(=N)N)NC(=O)CNC(=O)[C@H](CCC(N)=O)NC(=O)[C@@H](NC(=O)[C@@H](N)CCCNC(=N)N)C(C)C)C(C)C)C(=O)N[C@@H](CCCCN)C(=O)N[C@@H](CCCCN)C(=O)N[C@@H](CC(C)C)C(=O)N[C@@H](C)C(=O)N[C@@H](C)C(=O)N1CCC[C@H]1C(=O)N[C@@H](CO)C(=O)O [G7] (H-RVQGRWKVRASFFKGGGGSFKAWRWAWRMKKLAAPS-OH) | >36.2 | 18.1 (≈ 75.9 µg/mL) | 18.1 (≈ 75.9 µg/mL) | >36.2 | >36.2 | >36.2 | >36.2 | antibacterial activity (MIC) [2]: ≥ 18.1 µM |
| CSCC[C@H](NC(=O)[C@H](CCCNC(=N)N)NC(=O)[C@H](Cc1c[nH]c2ccccc12)NC(=O)[C@H](C)NC(=O)[C@H](Cc1c[nH]c2ccccc12)NC(=O)[C@H](CCCNC(=N)N)NC(=O)[C@H](Cc1c[nH]c2ccccc12)NC(=O)[C@H](C)NC(=O)[C@H](CCCCN)NC(=O)[C@H](Cc1ccccc1)NC(=O)[C@@H](N)CCCNC(=N)N)C(=O)N[C@@H](CCCCN)C(=O)N[C@@H](CCCCN)C(=O)N[C@@H](CC(C)C)C(=O)N[C@@H](C)C(=O)N[C@@H](C)C(=O)N1CCC[C@H]1C(=O)N[C@@H](CO)C(=O)O [R-L7] (H-RFKAWRWAWRMKKLAAPS-OH) | 18.1 (≈ 41.4 µg/mL) | – | 2.26 (≈ 5.17 µg/mL) | 18.1 (≈ 41.4 µg/mL) | – | 18.1 (≈ 41.4 µg/mL) | – | – |
| CC(C)[C@H](NC(=O)[C@H](CCCCN)NC(=O)[C@H](Cc1c[nH]c2ccccc12)NC(=O)[C@H](CCCNC(=N)N)NC(=O)CNC(=O)[C@H](CCC(N)=O)NC(=O)[C@@H](NC(=O)[C@@H](N)CCCNC(=N)N)C(C)C)C(=O)N[C@@H](CCCNC(=N)N)C(=O)N[C@@H](C)C(=O)N[C@@H](CO)C(=O)N[C@@H](Cc1ccccc1)C(=O)N[C@@H](Cc1ccccc1)C(=O)N[C@@H](CCCCN)C(=O)N[C@@H](CCCNC(=N)N)C(=O)N[C@@H](CCCCN)C(=O)N[C@@H](CCCNC(=N)N)C(=O)O [LBP14-RKR] (H-RVQGRWKVRASFFKRKR-OH) | 4.53 (≈ 9.99 µg/mL) | – | 2.26 (≈ 4.98 µg/mL) | 4.53 (≈ 9.99 µg/mL) | – | 9.06 (≈ 20 µg/mL) | – | – |
| polymyxin B [PMB, reference compound] | – | – | – | – | – | – | – | MBC (Escherichia coli CVCC195; [3]): 1 µM; MIC (Escherichia coli CVCC195; [4]): 1 µM; MBC (S. typhimurium CVCC533; [3]): 8 µM; MIC (S. typhimurium CVCC533; [4]): 8 µM; MBC (S. aureus CVCC546; [3]): >64 µM; MIC (S. aureus CVCC546; [4]): >64 µM; binding affinity to LPS (E. coli 0111: B4 LPS; peptide concentration 0.05 μM): 10.8258; binding affinity to LPS (E. coli 0111: B4 LPS; peptide concentration 0.1 μM): 13.138; binding affinity to LPS (E. coli 0111: B4 LPS; peptide concentration 0.5 μM): 19.3303; binding affinity to LPS (E. coli 0111: B4 LPS; peptide concentration 1 μM): 24.2435; binding affinity to LPS (E. coli 0111: B4 LPS; peptide concentration 5 μM): 53.9917; binding affinity to LPS (E. coli 0111: B4 LPS; peptide concentration 10 μM): 65.3662; binding affinity to LPS (E. coli 0111: B4 LPS; peptide concentration 50 μM): 89.1421; binding affinity to LPS (E. coli 0111: B4 LPS; peptide concentration 100 μM): 85.6684 |
| CC(C)[C@H](NC(=O)[C@H](CCCCN)NC(=O)[C@H](Cc1c[nH]c2ccccc12)NC(=O)[C@H](CCCNC(=N)N)NC(=O)CNC(=O)[C@H](CCC(N)=O)NC(=O)[C@@H](NC(=O)[C@@H](N)CCCNC(=N)N)C(C)C)C(=O)N[C@@H](CCCNC(=N)N)C(=O)N[C@@H](C)C(=O)N[C@@H](CO)C(=O)N[C@@H](Cc1ccccc1)C(=O)N[C@@H](Cc1ccccc1)C(=O)N[C@@H](CCCCN)C(=O)O [LBP14, reference compound] (H-RVQGRWKVRASFFK-OH) | 36.2 (≈ 63.9 µg/mL) | 4.53 (≈ 8 µg/mL) | 4.53 (≈ 8 µg/mL) | 18.1 (≈ 31.9 µg/mL) | >36.2 | 36.2 (≈ 63.9 µg/mL) | 36.2 (≈ 63.9 µg/mL) | MBC (S. typhimurium CVCC533; CVCC533, 18 h): 18.1 µM (≈ 31.9 µg/mL) |
| RVQGRWKVRASFFKEAAAKEAAAKFKAWRWAWRMKKLAAPS [A7] | >36.2 | 36.2 | 36.2 | >36.2 | >36.2 | >36.2 | >36.2 | antibacterial activity (MIC) [2]: ≥ 18.1 µM; MBC (S. typhimurium CVCC533; CVCC533, 18 h): >36.2 µM |
